Among the data in ChEMBL document CHEMBL1150179, “The cytotoxic principles of Solanum incanum” (1990) are EC50 values, retold here.

Structures are written as SMILES. Values after ≈ are worked out from the molar mass of the structure shown.

The test system of one assay is KB. As to the kind of experiment: Cytotoxicity against human KB cells by microassay. It counts as functional. Particulars: read-out: ED50 (the source's name).
On to `C[C@@H]1CC[C@]2(NC1)O[C@H]1C[C@H]3[C@@H]4CC=C5C[C@@H](O)CC[C@]5(C)[C@H]4CC[C@]3(C)[C@H]1[C@@H]2C` [SOLASODINE], for which the EC50 turned out to be 3.74 µg/mL (≈ 9.04 µM).

As to `C[C@H]1[C@H](C)CC[C@]2(C(=O)O)CC[C@]3(C)C(=CC[C@@H]4[C@@]5(C)CC[C@H](O)C(C)(C)[C@@H]5CC[C@]43C)[C@H]12` [URSOLIC ACID], the EC50 was 3.76 µg/mL (≈ 8.23 µM).

System in another assay: not listed separately
Kind of assay: Cytotoxicity against human PLC/PRF/5 cells by microassay. Particulars: read-out: ED50 (the source's name). Type of assay: functional.
With `C[C@H]1[C@H](C)CC[C@]2(C(=O)O)CC[C@]3(C)C(=CC[C@@H]4[C@@]5(C)CC[C@H](OC(=O)c6ccccc6)C(C)(C)[C@@H]5CC[C@]43C)[C@H]12`, the EC50 was determined as 6.89 µg/mL (≈ 12.3 µM).

For the compound `CCC(=O)O[C@H]1CC[C@]2(C)[C@H]3CC=C4[C@@H]5[C@@H](C)[C@H](C)CC[C@]5(C(=O)O)CC[C@@]4(C)[C@]3(C)CC[C@H]2C1(C)C`, the EC50 turned out to be 2.54 µg/mL (≈ 4.95 µM).

In the case of `C[C@@H]1CC[C@]2(NC1)O[C@H]1C[C@H]3[C@@H]4CC=C5C[C@@H](O)CC[C@]5(C)[C@H]4CC[C@]3(C)[C@H]1[C@@H]2C` [SOLASODINE], the EC50 came to 3.75 µg/mL (≈ 9.07 µM).

As for `C[C@H]1[C@H](C)CC[C@]2(C(=O)O)CC[C@]3(C)C(=CC[C@@H]4[C@@]5(C)CC[C@H](O)C(C)(C)[C@@H]5CC[C@]43C)[C@H]12` [URSOLIC ACID], the EC50 amounted to 3.89 µg/mL (≈ 8.52 µM).

For the compound `C[C@H]1[C@H](C)CC[C@]2(C(=O)O)CC[C@]3(C)C(=CC[C@@H]4[C@@]5(C)CC[C@H](OC(=O)/C=C/c6ccccc6)C(C)(C)[C@@H]5CC[C@]43C)[C@H]12`, the EC50 amounted to 7.24 µg/mL (≈ 12.3 µM).

`CC[C@H](C[C@@H](O)[C@@H](C)[C@H]1CC[C@H]2C3=CC(=O)[C@H]4[C@H](C)[C@@H](OC(=O)c5ccccc5)CC[C@]4(C)[C@H]3CC[C@]12C)C(C)C` [CARPESTEROL]: the EC50 turned out to be 8.47 µg/mL (≈ 15 µM).

Turning to `C[C@@H]1CC[C@@]2(NC1)O[C@H]1C[C@H]3[C@@H]4CC=C5C[C@@H](O[C@@H]6O[C@H](CO)[C@@H](O[C@@H]7O[C@@H](C)[C@H](O)[C@@H](O)[C@H]7O)[C@H](O)[C@H]6O)CC[C@]5(C)[C@H]4CC[C@]3(C)[C@H]1[C@@H]2C` [KHASIANINE], the EC50 was 8.6 µg/mL (≈ 11.9 µM).

Consider `CCCCCCCCCCCCCCCC(=O)O[C@H]1CC[C@]2(C)[C@H]3CC=C4[C@@H]5[C@@H](C)[C@H](C)CC[C@]5(C(=O)O)CC[C@@]4(C)[C@]3(C)CC[C@H]2C1(C)C`, for which the EC50 came out at 3.54 µg/mL (≈ 5.09 µM).

With `C/C=C/C(=O)O[C@H]1CC[C@]2(C)[C@H]3CC=C4[C@@H]5[C@@H](C)[C@H](C)CC[C@]5(C(=O)O)CC[C@@]4(C)[C@]3(C)CC[C@H]2C1(C)C`, the EC50 was 2.59 µg/mL (≈ 4.94 µM).

In the case of `C[C@@H]1CC[C@@]2(NC1)O[C@H]1C[C@H]3[C@@H]4CC=C5C[C@@H](O[C@@H]6O[C@H](CO)[C@@H](O[C@@H]7O[C@@H](C)[C@H](O)[C@@H](O)[C@H]7O)[C@H](O)[C@H]6O[C@@H]6O[C@@H](C)[C@H](O)[C@@H](O)[C@H]6O)CC[C@]5(C)[C@H]4CC[C@]3(C)[C@H]1[C@@H]2C` [SOLAMARGINE], the EC50 stood at 1.53 µg/mL (≈ 1.76 µM).
